In data set [1] the target is T1, GST-DEC (Dopey1 extreme C-terminal region) (Homo sapiens, UniProt B2RWN9).
T1 construct: DEC domain, residues 2146-2456, N-terminal GST fusion kept, E. coli BL21 DE3, detergent-free; dimeric through GST
T1 sequence (B2RWN9 2146-2456): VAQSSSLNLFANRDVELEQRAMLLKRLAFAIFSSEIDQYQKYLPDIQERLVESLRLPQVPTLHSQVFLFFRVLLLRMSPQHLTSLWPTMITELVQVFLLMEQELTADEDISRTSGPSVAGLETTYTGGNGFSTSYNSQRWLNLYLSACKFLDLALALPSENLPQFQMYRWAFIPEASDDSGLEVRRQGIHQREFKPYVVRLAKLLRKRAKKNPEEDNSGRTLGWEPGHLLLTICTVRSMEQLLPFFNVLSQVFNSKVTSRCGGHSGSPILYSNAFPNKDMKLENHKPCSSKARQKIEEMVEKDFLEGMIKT
The data set can be described thus: liposome pull-down with diluted protein, Western blot. The data set is classed as binding. Conditions: read-out: apparent affinity. In general terms: A western blot detects proteins with antibodies after separation by electrophoresis.

Data set [2] deals with the molecule itself. The data set can be described thus: single-molecule photo-bleaching steps (TIRF microscopy); GFP-fusion protein in HEK293T lysate (20 mM Tris pH 7.4) immobilised on a glass coverslip; photo-bleaching steps counted; expressed alone.

Turning to PI4P, the Kd in data set [1] is about 1000 nM.

B1: Mon2, full length, transfected (natural protein, UniProt Q7Z3U7 1-1717, looked up)
chain: MSGTSSPEAVKKLLENMQSDLRALSLECKKKFPPVKEAAESGIIKVKTIAARNTEILAALKENSSEVVQPFLMGCGTKEPKITQLCLAAIQRLMSHEVVSETAAGNIINMLWQLMENSLEELKLLQTVLVLLTTNTVVHDEALSKAIVLCFRLHFTKDNITNNTAAATVRQVVTVVFERMVAEDERHRDIIEQPVLVQGNSNRRSVSTLKPCAKDAYMLFQDLCQLVNADAPYWLVGMTEMTRTFGLELLESVLNDFPQVFLQHQEFSFLLKERVCPLVIKLFSPNIKFRQGSSTSSSPAPVEKPYFPICMRLLRVVSVLIKQFYSLLVTECEIFLSLLVKFLDADKPQWLRAVAVESIHRFCVQPQLLRSFCQSYDMKQHSTKVFRDIVNALGSFIQSLFLVPPTGNPATSNQAGNNNLGGSVSAPANSGMVGIGGGVTLLPAFEYRGTWIPILTITVQGSAKATYLEMLDKVEPPTIPEGYAMSVAFHCLLDLVRGITSMIEGELGELETECQTTTEEGSSPTQSTEQQDLQSTSDQMDKEIVSRAVWEEMVNACWCGLLAALSLLLDASTDEAATENILKAELTMAALCGRLGLVTSRDAFITAICKGSLPPHYALTVLNTTTAATLSNKSYSVQGQSVMMISPSSESHQQVVAVGQPLAVQPQGTVMLTSKNIQCMRTLLNLAHCHGAVLGTSWQLVLATLQHLVWILGLKPSSGGALKPGRAVEGPSTVLTTAVMTDLPVISNILSRLFESSQYLDDVSLHHLINALCSLSLEAMDMAYGNNKEPSLFAVAKLLETGLVNMHRIEILWRPLTGHLLEVCQHPNSRMREWGAEALTSLIKAGLTFNHDPPLSQNQRLQLLLLNPLKEMSNINHPDIRLKQLECVLQILQSQGDSLGPGWPLVLGVMGAIRNDQGESLIRTAFQCLQLVVTDFLPTMPCTCLQIVVDVAGSFGLHNQELNISLTSIGLLWNISDYFFQRGETIEKELNKEEAAQQKQAEEKGVVLNRPFHPAPPFDCLWLCLYAKLGELCVDPRPAVRKSAGQTLFSTIGAHGTLLQHSTWHTVIWKVLFHLLDRVRESSTTADKEKIESGGGNILIHHSRDTAEKQWAETWVLTLAGVARIFNTRRYLLQPLGDFSRAWDVLLDHIQSAALSKNNEVSLAALKSFQEILQIVSPVRDSDKPETPPVVNVPVPVLIGPISGMSRPFVRTDSIGEKLGRYSSSEPPIVTDELEDLNLWWAAWNTWYRIGSESTKPPITFDKLTFIPSQPFLTALIQIFPALYQHIKTGFNMDDLQKLGVILHSAISVPISSDASPFILPSYTEAVLTSLQEAVLTALDVLQKAICVGPENMQIMYPAIFDQLLAFVEFSCKPPQYGQLETKHIANAKYNQIQLFAPAEWVALNYVPFAERSLEVVVDLYQKTACHKAVVNEKVLQNIIKTLRVPLSLKYSCPSESTWKLAVSSLLRVLSIGLPVARQHASSGKFDSMWPELANTFEDFLFTKSIPPDNLSIQEFQRNENIDVEVVQLISNEILPYANFIPKEFVGQIMTMLNKGSIHSQSSSFTEAEIDIRLREEFSKMCFETLLQFSFSNKVTTPQEGYISRMALSVLLKRSQDVLHRYIEDERLSGKCPLPRQQVTEIIFVLKAVSTLIDSLKKTQPENVDGNTWAQVIALYPTLVECITCSSSEVCSALKEALVPFKDFMQPPASRVQNGES
notes: Mon2, full length; One molecule for the differently tagged copies (GFP-Mon2 and DMyc-Mon2 in the self co-IP); GFP-Mon2 in photo-bleaching; DMyc-Mon2 co-expressed with GFP-Dopey1; also called GFP-Mon2; DMyc-Mon2; source: HEK293T, transfected, in lysate; HeLa, transfected (imaging); not shown: GFP or DMyc or another fluorescence protein (by experiment), N-terminal, kept
One may read the stoichiometry N as a count of units in the complex or per binding partner. In the case of B1, in data set [2], the “stoichiometry N” value was 2.

The values above are taken from paper PMC6642134, “Dopey1-Mon2 complex binds to dual-lipids and recruits kinesin-1 for membrane trafficking” (Nature Communications, 2019).
